The text below walks through data of patent publication US6335323B1, “Compositions for the treatment of peripheral neuropathies containing antidepressants and/or monoamine oxidase inhibitors and/or vitamin B12 and/or precursors or inducers of a neurotransmitter” (The WWK Trust, priority 1996, dated 2002).

Experiment [1] deals with diabetic neuropathy. To be noted: cited from earlier work; for effectiveness against diabetic neuropathy symptoms: prior art statement.
The subject of experiment [2] is neuropathy related to HIV. Description: Clinical case report, HIV related peripheral neuropathy (Case #9). It is filed as in vivo, human. To be noted: result in words. On the procedure:
A person was HIV positive and complained of moderate peripheral neuropathy including painful neuropathy. They also had mild diabetes of short duration but clinically their neuropathy was diagnosed as that related to HIV. […] They were additionally commenced on L-phenylalanine 500 mg twice daily, whereafter they reported an approximate further 50% improvement in the symptoms of their painful neuropathy.

The test system of experiment [3] is diabetic neuropathy. Description: Clinical case reports of patients with diabetic neuropathy. To be noted: single patient case reports; result in words. Format: in vivo, human. An excerpt:
The onset of neuropathy was thought to be due to poor control of diabetes. Neuropathic symptoms increased in severity over several years with development of severe diabetic neuropathy including diabetic amyotrophy, painful neuropathy with spasm, diabetic autonomic neuropathy and decreased sensation in the extremities, with numbing and loss of vibration sense. Electromyography confirmed the diagnosis of diabetic neuropathy.
A person with non-insulin dependent diabetes with very severe diabetic neuropathy, including diabetic amyotrophy and bedbound, resistant to current therapies, was commenced on vitamin B12 injections (1 mg at two-week intervals) and L-phenylalanine (as a metabolite of aspartame) 500 mg twice a day.
This case studied here is of the same person with diabetic neuropathy as in case #1, but after the original observation in case #1. The patient was subsequently continued on the same vitamin B12 injections and phenylalanine (500 mg twice daily) only.
A person with non-insulin dependent diabetes for 15 years with reasonable control, developed peripheral painful diabetic neuropathy of two months duration. […]
A person had severe diabetic peripheral neuropathy and resultant Charcot foot joints. […] Vibration sense initially could not be detected at a level below the knee.

In experiment [4] the test system is vitamin B12 neuropathy and mild alcoholic neuropathy. Description: Clinical case report, vitamin B12 neuropathy and mild alcoholic neuropathy (Case #4). Format: in vivo, human. To be noted: result in words. The text has this: A person with vitamin B12 neuropathy and mild alcoholic neuropathy was studied. Clinical progress with vitamin B12 injections alone was insignificant. […] Previously they required the assistance of another person to walk.

Turning to `Cc1cccc(C)c1OCC(C)N` (centres unmarked) [mexilitene], in the experiment with diabetic neuropathy [1], the “effectiveness against diabetic neuropathy symptoms” value (“effectiveness” below) was “only to be mildly effective”.

As to `CN(C)CCC=C1c2ccccc2CCc2ccccc21` [amitriptyline], the “clinical effect on neuropathy” value in experiment [2] is “some mild beneficial effects”.

For `CCCCC/C=C\C/C=C\C/C=C\CCCCC(=O)O` [gamolenic acid], the “effectiveness” value with diabetic neuropathy [1] is given as “may reduce symptoms”. The “progression of abnormalities in nerve conduction studies” value in the experiment on diabetic neuropathy [1] (recent clinical trials) is recorded as “prevent the progression”.

`CN(C)CC/C=C1\c2ccccc2CSc2ccccc21` [dothiepin]: the “clinical response of diabetic neuropathy signs and symptoms” value in the experiment with diabetic neuropathy [3] was “mild beneficial effect”.

Turning to `NC(=O)N1c2ccccc2C=Cc2ccccc21` [carbemazepine], in the experiment on diabetic neuropathy [1], the “effectiveness” value is “only to be mildly effective”. The “clinical response of diabetic neuropathy signs and symptoms” value in the experiment on diabetic neuropathy [3] is “ineffective”.

Regarding vitamin B12, the clinical progress entry in experiment [4] is “insignificant”.
